The values below come from patent US7041785B1, “B1-bradykinin receptor antagonists and use thereof” (Université de Sherbrooke, priority 1996, dated 2006).

For one assay, the target named is T1, B2 receptor (Oryctolagus cuniculus, UniProt Q28642).
T1 sequence (Q28642 1-367): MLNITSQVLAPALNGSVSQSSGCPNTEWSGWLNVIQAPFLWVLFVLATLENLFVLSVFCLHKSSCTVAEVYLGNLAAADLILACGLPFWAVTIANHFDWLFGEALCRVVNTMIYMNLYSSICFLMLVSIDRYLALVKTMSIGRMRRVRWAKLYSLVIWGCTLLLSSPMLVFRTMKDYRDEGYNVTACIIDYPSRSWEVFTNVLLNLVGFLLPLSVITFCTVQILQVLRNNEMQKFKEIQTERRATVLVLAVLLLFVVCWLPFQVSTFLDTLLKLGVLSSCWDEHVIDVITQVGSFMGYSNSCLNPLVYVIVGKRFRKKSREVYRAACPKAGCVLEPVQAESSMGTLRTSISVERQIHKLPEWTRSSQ
Particulars: vs BK; captopril 1 μmol/L; Inactive = no detectable antagonistic effect at ≦ 10 μg/ml.

A further assay has as its target T2, human B2 receptor (Homo sapiens, UniProt P30411).
T2 construct: Helical strips of HUV were prepared according to Gobeil et al; from tissue; host or cells: human umbilical vein helical strips
T2 sequence (P30411 1-391): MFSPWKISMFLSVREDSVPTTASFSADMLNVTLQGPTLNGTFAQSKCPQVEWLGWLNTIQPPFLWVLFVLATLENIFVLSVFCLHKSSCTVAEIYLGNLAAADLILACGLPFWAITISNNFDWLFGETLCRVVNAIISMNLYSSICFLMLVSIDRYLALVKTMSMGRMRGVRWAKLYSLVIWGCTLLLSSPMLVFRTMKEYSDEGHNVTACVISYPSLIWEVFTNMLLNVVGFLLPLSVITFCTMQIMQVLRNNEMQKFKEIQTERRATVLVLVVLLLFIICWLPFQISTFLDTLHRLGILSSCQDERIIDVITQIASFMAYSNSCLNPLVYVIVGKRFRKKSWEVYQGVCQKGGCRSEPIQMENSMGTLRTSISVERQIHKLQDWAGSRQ
In words: Human umbilical vein bioassay in presence of Lys(Leu8)desArg9BK, B2 receptor. The class given is cell-based. Particulars: vs BK, Lys(Leu8)desArg9BK 1 μmol/L present. The text has this:
Tissues were taken from New Zealand white rabbits (1.5–2.5 kg) and Dunken Hartley guinea pigs (250–350 g) of either sex, killed by stunning and exsanguination. Umbilical cords were taken from healthy women 22–40 years old after spontaneous delivery at term. The rabbit jugular vein (RbJV), the guinea pig ileum (GPI), two preparations containing B2 receptors, the rabbit aorta (RbA) (B1 receptor) and the human umbilical vein (HUV), a mixed preparation containing both B1 and B2 receptors^10, were used. Helical strips of RbJV treated with 1 μmol/L of captopril to avoid peptide degradation by the angiotensin-converting enzyme (ACE), alias kininase II were prepared according to Gaudreau et al.^11 Helical strips of RbA devoid of endothelium were prepared according to Furchgott and Bhadrakom^12. Longitudinal segments of GPI were prepared with the procedure described by Rang^13. Helical strips of HUV were prepared according to Gobeil et al.^10. The tissues were suspended in 10-ml organ baths containing warm (37EC), oxygenated (95% O2–5% CO2) Krebs solution of the following composition in mmol/L; NaCl: 118.1; KCl: 4.7; CaCl26H2O: 2.5; KH2PO4: 1.2; MgSO47H2O: 1.18; NaHCO3: 25.0 and D-Glucose: 5.5. The RbA and the HUV were stretched with an initial tension of 2 g, whereas the RbJV and the GPI were loaded with 0.5 g. Changes of tension produced by the various agents were measured with Grass isometric transducers (model FT 03C, Grass Instrument Co., Quincy, Mass.). […] Before testing the drugs, the tissues were allowed to equilibrate for 60–120 min during which time the tissues were repeatedly washed and the tension readjusted every 15 min.
At the beginning of each experiment, a submaximal dose of bradykinin (BK) (9 nmol/L), was applied repeatedly on the RbJV, the GPI or the HUV to ensure that tissues responded with stable contractions. […] A similar protocol was used for the HUV.
Repeated applications of a singl and double concentration of BK (on RbJV, GPI and HUV) and of desArg^9BK (RbA and HUV) were made in the absence and in presence of the various peptides to evaluate their apparent affinities as antagonists, in terms of pA2 (-log10 of the molar concentration of antagonist that reduces the effect of a double concentration of agonist to that of a single one)^14. The antagonists were applied 10 min before measuring the myotropic effects of either BK (the B2 receptor agonist) or desArg^9BK (the B1 receptor agonist). […] All kinin antagonists were initially applied to tissues at concentration of 10 μg/mL to measure their potential agonistic activities (α^E) in comparison with BK (in the B2 receptor preparations) or desArg^9BK (in the B1 receptor preparations).

A further assay has as its target T3, human B1 receptor (Homo sapiens, UniProt P46663).
T3 sequence (P46663 1-353): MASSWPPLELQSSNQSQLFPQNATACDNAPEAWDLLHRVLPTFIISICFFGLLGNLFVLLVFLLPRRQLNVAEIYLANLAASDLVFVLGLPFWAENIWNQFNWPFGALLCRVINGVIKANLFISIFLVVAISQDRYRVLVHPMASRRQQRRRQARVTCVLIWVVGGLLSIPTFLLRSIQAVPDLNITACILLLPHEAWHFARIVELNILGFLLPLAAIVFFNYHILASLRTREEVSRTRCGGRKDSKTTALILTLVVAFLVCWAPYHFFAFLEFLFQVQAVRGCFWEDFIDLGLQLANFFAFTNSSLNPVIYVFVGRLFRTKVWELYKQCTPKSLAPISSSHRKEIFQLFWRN
In words: cell-based. Particulars: for Human umbilical vein B1 receptor α^E: residual agonistic activity at 10 μg/mL. An outline of the steps: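 Isolated rabbit jugular vein (captopril 1 μmol/L), guinea pig ileum, endothelium-free rabbit aorta and human umbilical vein, in Krebs at 37 °C, with isometric tension recorded. Agonism was tested at 10 μg/mL.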

Setting [1] is: Human umbilical vein B1 receptor pA2, vs desArg9BK, HOE140 400 nmol/L present.

SMILES strings stand for the structures. Read-outs that look alike come from different tables or passages of the source. Non-standard residues stand in square brackets, D forms with d. Residues, ends and D or L forms follow the SMILES beside them. Tyr(3,5-I2) = N[C@@H](Cc1cc(I)c(O)c(I)c1)C(=O)O; 2Nal = N[C@@H](Cc1ccc2ccccc2c1)C(=O)O; d2Nal = N[C@H](Cc1ccc2ccccc2c1)C(=O)O; Tic = O=C(O)[C@@H]1Cc2ccccc2CN1; dTic = O=C(O)[C@H]1Cc2ccccc2CN1; Ahx = NCCCCCC(=O)O; Sar = CNCC(=O)O

Consider `CNCC(=O)N[C@@H](CCCNC(=N)N)C(=O)N1CCC[C@H]1C(=O)N1CCC[C@H]1C(=O)NCC(=O)N[C@@H](Cc1ccccc1)C(=O)N[C@@H](CO)C(=O)N1Cc2ccccc2C[C@@H]1C(=O)N[C@@H](CC(C)C)C(=O)O` [Compound 9, Sar(D-Tic^7, Leu^8)desArg^9BK] (H-[Sar]RPPGFS[dTic]L-OH; N-terminus and C-terminus assumed), for which the “Rb.J.V. pA2” value on B2 receptor is reported as “Inactive”.
`CC[C@H](C)[C@H](NC(=O)[C@H]1Cc2ccccc2CN1C(=O)[C@H](CO)NC(=O)[C@H](Cc1ccccc1)NC(=O)CNC(=O)[C@@H]1CCCN1C(=O)[C@@H]1CCCN1C(=O)[C@H](CCCNC(=N)N)NC(=O)[C@H](N)CCCNC(=N)N)C(=O)O` [Compound 13, D-Arg(D-Tic^7, Ile^8)desArg^9BK] (H-[dR]RPPGFS[dTic]I-OH; N-terminus and C-terminus assumed): the “Human umbilical vein B2 receptor pA2” value at human B2 receptor is on record as “Inactive”. In addition, the Kb at human B1 receptor (setting [1]) is 22.9 nM.
In the same order, the values of `CC[C@H](C)[C@H](NC(=O)[C@@H]1Cc2ccccc2CN1C(=O)[C@H](CO)NC(=O)[C@H](Cc1ccccc1)NC(=O)CNC(=O)[C@@H]1CCCN1C(=O)[C@@H]1CCCN1C(=O)[C@H](CCCNC(=N)N)NC(=O)[C@H](N)CCCNC(=N)N)C(=O)O` [Compound 14, D-Arg(L-Tic^7, Ile^8)desArg^9BK] (H-[dR]RPPGFS[Tic]I-OH; N-terminus and C-terminus assumed) are “Inactive” and 4680 nM.
`CC(=O)N[C@@H](CCCCN)C(=O)N[C@@H](CCCNC(=N)N)C(=O)N1CCC[C@H]1C(=O)N1CCC[C@H]1C(=O)NCC(=O)N[C@@H](Cc1ccccc1)C(=O)N[C@@H](CO)C(=O)N[C@H](Cc1ccc2ccccc2c1)C(=O)N[C@@H](CC(C)C)C(=O)O` [Compound 18, AcLys(D-βNal^7, Leu^8)desArg^9BK] (Ac-KRPPGFS[d2Nal]L-OH; C-terminus assumed): the “Human umbilical vein B2 receptor pA2” value at human B2 receptor is given as “Inactive”. This compound also had a Kb at human B1 receptor (setting [1]) of 35.5 nM. In addition, the “Human umbilical vein B1 receptor α^E” value on human B1 receptor worked out at 0.
Consider `CC[C@H](C)[C@H](NC(=O)[C@@H](Cc1ccc2ccccc2c1)NC(=O)[C@H](CO)NC(=O)[C@H](Cc1ccccc1)NC(=O)CNC(=O)[C@@H]1CCCN1C(=O)[C@@H]1CCCN1C(=O)[C@H](CCCN=C(N)N)NC(=O)[C@H](CCCCN)NC(C)=O)C(=O)O` [Compound 19, AcLys(D-βNal^7, Ile^8)desArg^9BK] (Ac-KRPPGFS[d2Nal]I-OH), for which, on human B1 receptor, the Kb is 3.16 nM.
On to `CC[C@H](C)[C@H](NC(=O)[C@H](Cc1ccc2ccccc2c1)NC(=O)[C@H](CO)NC(=O)[C@H](Cc1ccccc1)NC(=O)CNC(=O)[C@@H]1CCCN1C(=O)[C@@H]1CCCN1C(=O)[C@H](CCCNC(=N)N)NC(=O)[C@H](CCCCN)NC(C)=O)C(=O)O` [Compound 20, AcLys(L-βNal^7, Ile^8)desArg^9BK] (Ac-KRPPGFS[2Nal]I-OH; C-terminus assumed), for which the “Human umbilical vein B2 receptor pA2” value on human B2 receptor is recorded as “Inactive”. In addition, the Kb at human B1 receptor (setting [1]) was 6920 nM. In addition, on human B1 receptor, the “Human umbilical vein B1 receptor α^E” value came out at 0.
Take `CC(C)C[C@H](NC(=O)[C@@H](Cc1ccc2ccccc2c1)NC(=O)[C@H](CO)NC(=O)[C@H](Cc1ccccc1)NC(=O)CNC(=O)[C@@H]1CCCN1C(=O)[C@@H]1CCCN1C(=O)[C@H](CCCNC(=N)N)NC(=O)[C@H](N)CCCNC(=N)N)C(=O)O` [Compound 24, D-Arg(D-βNal^7, Leu^8)desArg^9BK] (H-[dR]RPPGFS[d2Nal]L-OH; N-terminus and C-terminus assumed): on human B2 receptor, the “Human umbilical vein B2 receptor pA2” value is “Inactive”. At human B1 receptor (setting [1]), this compound had a Kb of 50.1 nM.
On the same counts, the results for `CC[C@H](C)[C@H](NC(=O)[C@@H](Cc1ccc2ccccc2c1)NC(=O)[C@H](CO)NC(=O)[C@H](Cc1ccccc1)NC(=O)CNC(=O)[C@@H]1CCCN1C(=O)[C@@H]1CCCN1C(=O)[C@H](CCCNC(=N)N)NC(=O)CNC)C(=O)O` [Compound 26, Sar(D-βNal^7, Ile^8)desArg^9BK] (H-[Sar]RPPGFS[d2Nal]I-OH; N-terminus and C-terminus assumed) are “Inactive” and 47.9 nM.
On to `CC(=O)N[C@@H](Cc1ccc(O)cc1)C(=O)NCCCCCC(=O)N[C@@H](CCCCN)C(=O)N[C@@H](CCCNC(=N)N)C(=O)N1CCC[C@H]1C(=O)N1CCC[C@H]1C(=O)NCC(=O)N[C@@H](Cc1ccccc1)C(=O)N[C@@H](CO)C(=O)N1CCC[C@H]1C(=O)N[C@@H](CC(C)C)C(=O)O` [Compound 27, AcTyrεAhxLys(Leu^8)desArg^9BK], for which the “Rb.J.V. pA2” value on B2 receptor is listed as “Inactive”.
In the case of `CNCC(=O)N[C@@H](Cc1ccc(O)cc1)C(=O)NCCCCCC(=O)N[C@@H](CCCCN)C(=O)N[C@@H](CCCNC(=N)N)C(=O)N1CCC[C@H]1C(=O)N1CCC[C@H]1C(=O)NCC(=O)N[C@@H](Cc1ccccc1)C(=O)N[C@@H](CO)C(=O)N1CCC[C@H]1C(=O)N[C@@H](CC(C)C)C(=O)O` [Compound 28, SarTyrεAhxLys(Leu^8)desArg^9BK], the “Rb.J.V. pA2” value at B2 receptor is “Inactive”.
On to `CC[C@H](C)[C@H](NC(=O)[C@@H](Cc1ccc2ccccc2c1)NC(=O)[C@H](CO)NC(=O)[C@H](Cc1ccccc1)NC(=O)CNC(=O)[C@@H]1CCCN1C(=O)[C@@H]1CCCN1C(=O)[C@H](CCCNC(=N)N)NC(=O)[C@H](CCCCN)NC(=O)CCCCCNC(=O)[C@H](Cc1ccc(O)cc1)NC(=O)CNC)C(=O)O` [Compound 29, SarTyrεAhxLys(D-βNal^7, Ile^8)desArg^9BK] (H-[Sar]Y[Ahx]KRPPGFS[d2Nal]I-OH; N-terminus and C-terminus assumed), for which, at human B2 receptor, the “Human umbilical vein B2 receptor pA2” value is recorded as “Inactive”. Moreover, the Kb on human B1 receptor (setting [1]) was 4.07 nM.
In the same order, the values of `CC[C@H](C)[C@H](NC(=O)[C@@H](Cc1ccc2ccccc2c1)NC(=O)[C@H](CO)NC(=O)[C@H](Cc1ccccc1)NC(=O)CNC(=O)[C@@H]1CCCN1C(=O)[C@@H]1CCCN1C(=O)[C@H](CCCNC(=N)N)NC(=O)[C@H](CCCCN)NC(=O)CCCCCNC(=O)[C@H](Cc1cc(I)c(O)c(I)c1)NC(=O)CNC)C(=O)O` [Compound 30, SarTyr(3,5-I)εAhxLys(D-βNal^7, Ile^8)desArg^9BK] (H-[Sar][Tyr(3,5-I2)][Ahx]KRPPGFS[d2Nal]I-OH; N-terminus and C-terminus assumed) are “Inactive” and 4.79 nM.
